Our source for the IC50 values is patent publication US20240174680A1, “CDK2 INHIBITORS AND METHODS OF USING THE SAME” (Cedilla Therapeutics, Inc., priority 2021, published 2024).

The test has as its target CDK2/Cyclin E1 (Homo sapiens, UniProt P24941). Nature of the test: CDK2/Cyclin E1 Caliper LabChip EZ Reader mobility shift assay. The class given is biochemical. More on the design: purchased Eurofins 14-475. The following applies: read-out: Caliper Assay (CDK2/CCNE1): IC50. Put shortly: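 Substrate-to-product conversion of fluorescent peptide (1.5 μM final) read by capillary electrophoresis after 100 min reaction, EDTA-quenched. Enzyme (2.5 nM final) and ATP (100 μM final) were preincubated 30 min with inhibitor dilutions first. % activity vs concentration fitted four-parameter for IC50.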

pIC50: −log10 of the molar value.

In the case of `Cc1nc(C)c(C(=O)N2C[C@@H](C(=O)N[C@H](C(=O)N3CCC(OC(F)(F)F)CC3)[C@@H](C)OCC34CCC(CC3)OC4)C3(C2)CN(C(=O)[C@H]2CC2(C)C)C3)s1` [I-455], the pIC50 is 7.00 to 8.00.

Turning to `C[C@@H](OCC1CCC(F)(F)CC1)[C@H](NC(=O)[C@H]1CN(C(=O)c2cn[nH]c2)CC12CN(C(=O)C1(C(F)(F)F)CC1)C2)C(=O)N1CCC(F)(F)CC1` [I-188B], the pIC50 was 5.00 to 6.00. As to `CNC(=O)[C@@H](NC(=O)[C@@H]1CN(C(=O)c2cnn(Cc3ccccc3)c2)CC12CN(C(=O)c1ccccc1)C2)[C@@H](C)OCc1ccccc1` [I-26A], the pIC50 was 5.00 to 6.00. For the molecule `C[C@@H]1C[C@H](C)CN(C(=O)[C@@H](NC(=O)C2CN(C(=O)c3cnn(Cc4ccccc4)c3)CC23CN(C(=O)[C@H]2CC2(C)C)C3)[C@@H](C)OCc2ccccc2)C1` (some centres unmarked) [I-22], the pIC50 was 7.00 to 8.00. Take `C[C@@H](OCC1(C(F)(F)F)CC1)[C@H](NC(=O)[C@@H]1CN(C(=O)c2cncs2)CC12CN(C(=O)[C@H]1CC1(C)C)C2)C(=O)N1CCC(F)(F)CC1` [I-287]: the pIC50 is 6.00 to 7.00. As for `CNC(=O)[C@@H](NC(=O)[C@H]1CN(C(=O)c2cnn(C)c2)CC12CN(C(=O)[C@H]1CC1(C)C)C2)[C@@H](C)OCc1ccccc1` [I-33B], the pIC50 is less than 5.00. The figure for `COC[C@H]1CCCN(C(=O)[C@@H](NC(=O)[C@@H]2CN(C(=O)c3cncs3)CC23CN(C(=O)[C@H]2CC2(C)C)C3)[C@@H](C)OC(C)C2CCC(F)(F)CC2)C1` (some centres unmarked) [I-360] is no less than 8.00. Take `CNC(=O)[C@@H](NC(=O)[C@@H]1CN(C(=O)c2cncs2)CC12CN(Cc1cnco1)C2)[C@@H](C)OCC12CCC(CC1)OC2` [I-350]: the pIC50 was less than 5.00.

As for `CNC(=O)[C@@H](NC(=O)[C@H]1CN(C(=O)c2cnn(Cc3ccccc3)c2)CC12CN(C(=O)[C@H]1CC1(C)C)C2)[C@@H](C)OCC1CCCCCC1` [I-166B], the pIC50 was 6.00 to 7.00. Take `C[C@@H](OCC1CCCCC1)[C@H](NC(=O)[C@@H]1CN(C(=O)c2cnn(Cc3ccccc3)c2)CC12CN(C(=O)[C@H]1CC1(C)C)C2)C(=O)N1CCC[C@H]1CN` [I-220]: the pIC50 was 7.00 to 8.00.

As to `C[C@@H](OCC1CCCCC1)[C@H](NC(=O)C1CN(C(=O)c2cnn(Cc3ccccc3)c2)CC12CN(C(=O)[C@H]1CC1(C)C)C2)C(=O)NCCC(=O)O` (some centres unmarked) [I-353], the pIC50 is no less than 8.00. The figure for `C[C@@H](OCC1CCCCC1)[C@H](NC(=O)[C@@H]1CN(C(=O)c2cnn(Cc3ccccc3)c2)CC12CN(C(=O)[C@H]1CC1(C)C)C2)C(=O)N1CCC(c2ccncc2)CC1` [I-300] is no less than 8.00; for `C[C@@H](OCC1CC(F)(F)C1)[C@@H](CO)NC(=O)[C@@H]1CN(C(=O)c2cncs2)CC12CN(C(=O)[C@H]1CC1(C)C)C2` [I-412] it is 7.00 to 8.00. With `CNC(=O)[C@@H](NC(=O)[C@H]1CN(C(=O)c2sc(C(C)C)nc2C)CC12CN(C(=O)[C@H]1CC1(C)C)C2)[C@@H](C)OCC1CCCCC1` [I-227B], the pIC50 was less than 5.00.

Take `CNC(=O)C(NC(=O)[C@@H]1CN(C(=O)c2cncs2)CC12CN(C(=O)[C@H]1CC1(C)C)C2)c1cccc(C2CCC(F)(F)CC2)n1` (some centres unmarked) [I-411]: the pIC50 is 7.00 to 8.00. As for `CNC(=O)[C@@H](NC(=O)[C@H]1CN(Cc2n[nH]c3ccccc23)CC12CN(C(=O)[C@H]1CC1(C)C)C2)[C@@H](C)OCc1ccccc1` [I-143], the pIC50 was less than 5.00.

As to `C[C@@H](OCC12CCC(CC1)CC2)[C@H](NC(=O)[C@@H]1CN(C(=O)c2cncs2)CC12CN(C(=O)[C@H]1CC1(C)C)C2)C(C)(C)O` [I-304], the pIC50 is no less than 8.00. The figure for `COc1cccc(CNC(=O)[C@H]2CN(C(=O)c3cnn(Cc4ccccc4)c3)CC23CN(C(=O)[C@H]2CC2(C)C)C3)n1` [I-126B] is less than 5.00; for `C[C@@H](OCC12CCC(CC1)OC2)[C@H](NC(=O)[C@@H]1CN(C(=O)c2sc(Cl)nc2Cl)CC12CN(C(=O)C(C)(C)C1CC1)C2)C(C)(C)O` [I-471] it is 5.00 to 6.00.

Consider `C[C@@H](OCC1CCCCC1)C(NC(=O)[C@@H]1CN(C(=O)c2cncs2)CC12CN(C(=O)[C@H]1CC1(C)C)C2)c1nnco1` (stereo in doubt) [I-415, (S)—N-((1S,2R)-2-(cyclohexylmethoxy)-1-(1,3,4-oxadiazol-2-yl)propyl)-2-((S)-2,2-dimethylcyclopropane-1-carbonyl)-6-(thiazole-5-carbonyl)-2,6-diazaspiro[3.4]octane-8-carboxamide], for which the pIC50 is 7.00 to 8.00. The figure for `C[C@@H](OC(C)(C)C1CCCCC1)[C@H](NC(=O)[C@@H]1CN(C(=O)c2cncs2)CC12CN(C(=O)[C@H]1CC1(C)C)C2)C(=O)N1CCCCC1` [I-395] is 7.00 to 8.00; for `C[C@@H](OCC1CCCCC1)[C@H](NC(=O)[C@@H]1CN(C(=O)c2cnn(Cc3ccccc3)c2)CC12CN(C(=O)[C@H]1CC1(C)C)C2)C(=O)N1CCC(n2cccn2)CC1` [I-439] it is no less than 8.00. The figure for `Cc1ccc(CNC(=O)[C@H]2CN(C(=O)c3cnn(Cc4ccccc4)c3)CC23CN(C(=O)[C@H]2CC2(C)C)C3)nn1` [I-381] is less than 5.00; for `C[C@@H](OCC1CCCCC1)[C@H](NC(=O)C1CN(C(=O)c2cncs2)CC12CN(C(=O)[C@H]1CC1(C)C)C2)C(=O)N1CCOCC1` (some centres unmarked) [I-138] it is no less than 8.00. The figure for `CNC(=O)[C@@H](NC(=O)[C@H]1CN(C(=O)c2sc(COC)nc2C)CC12CN(C(=O)[C@H]1CC1(C)C)C2)[C@@H](C)OCC1CCCCC1` [I-162B] is less than 5.00; for `CNC(=O)[C@@H](NC(=O)[C@@H]1CN(C(=O)c2cnn(Cc3ccccc3)c2)CC12CN(C(=O)[C@H]1CC1(C)C)C2)[C@@H](C)OCc1ccc(Br)cc1` [I-263] it is no less than 8.00. As to `CNC(=O)[C@@H](NC(=O)[C@H]1CN(C(=O)c2cnn(Cc3ccccc3)c2)CC12CN(C(=O)c1ccccc1)C2)[C@@H](C)OCc1ccccc1` [I-26B], the pIC50 was less than 5.00. As to `C[C@@H](OCC1CCCCC1)[C@H](NC(=O)[C@@H]1CN(C(=O)c2cnn(Cc3ccccc3)c2)CC12CN(C(=O)[C@H]1CC1(C)C)C2)C(=O)N1CCC(c2cnc[nH]2)CC1` [I-438], the pIC50 is no less than 8.00. The figure for `CNC(=O)[C@@H](NC(=O)[C@H]1CN(C(=O)Nc2cnn(Cc3ccccc3)c2)CC12CN(C(=O)[C@H]1CC1(C)C)C2)[C@@H](C)OCc1ccccc1` [I-48B] is less than 5.00; for `CNC(=O)[C@@H](NC(=O)[C@H]1CN(C(=O)c2cnn(Cc3ccccc3)c2)CC12CN(C(=O)CC(F)(F)F)C2)[C@@H](C)OCc1ccccc1` [I-87B] it is less than 5.00; for `C[C@@H](OCC1CCCCC1)[C@@H](COC1CCCNC1)NC(=O)[C@@H]1CN(C(=O)c2cncs2)CC12CN(C(=O)[C@H]1CC1(C)C)C2` (some centres unmarked) [I-332] it is no less than 8.00. The figure for `CNC(=O)[C@@H](NC(=O)[C@H]1CN(C(=O)C2CCOCC2)CC12CN(C(=O)[C@H]1CC1(C)C)C2)[C@@H](C)OCc1ccccc1` [I-38B] is less than 5.00; for `C[C@@H](OCC1(C(F)(F)F)CC1)[C@H](NC(=O)[C@H]1CN(C(=O)c2cncs2)CC12CN(C(=O)[C@H]1CC1(C)C)C2)C(=O)N1CCC(F)(F)CC1` [I-291] it is 6.00 to 7.00; for `C[C@@H](OCC1CCCCC1)[C@@H](COC1CCC(F)(F)CC1)NC(=O)[C@@H]1CN(C(=O)c2cnn(Cc3ccccc3)c2)CC12CN(C(=O)[C@H]1CC1(C)C)C2` [I-271] it is no less than 8.00. The figure for `CNC(=O)[C@@H](NC(=O)[C@@H]1CN(C(=O)c2cnn(Cc3ccccc3)c2)CC12CN(C(=O)C1(C3CC3)CC1)C2)[C@@H](C)OCc1ccccc1` [I-114A] is 6.00 to 7.00. On to `CNC(=O)[C@@H](NC(=O)[C@H]1CN(C(=O)c2cnn(Cc3ccccc3)c2)CC12CN(C(=O)C(C)C)C2)[C@@H](C)OCc1ccccc1` [I-54B], for which the pIC50 is less than 5.00. The figure for `CNC(=O)[C@@H](NC(=O)[C@@H]1CN(C(=O)c2cnn(Cc3ccccc3)c2)CC12CN(C(=O)C(C)(C)C1CC1)C2)[C@@H](C)OCc1ccccc1` [I-276] is 5.00 to 6.00; for `CNC(=O)[C@@H](NC(=O)[C@@H]1CN(C(=O)c2nncs2)CC12CN(C(=O)[C@H]1CC1(C)C)C2)[C@@H](C)OCC1CCCCC1` [I-246] it is 6.00 to 7.00; for `CC1(C)C[C@@H]1C(=O)N1CC2(CN(C(=O)c3cncs3)C[C@H]2C(=O)NC(c2cccc(C3CCCCC3)n2)P(C)(C)=O)C1` (some centres unmarked) [I-494] it is 6.00 to 7.00. The figure for `CC1(C)C[C@@H]1C(=O)N1CC2(CN(C(=O)c3cncs3)C[C@H]2C(=O)N[C@@H](COCC2CCCCC2)C(=O)N2CCCCC2)C1` [I-286] is 7.00 to 8.00; for `CNC(=O)[C@@H](NC(=O)[C@@H]1CN(C(=O)c2cnn(Cc3ccccc3)c2)CC12CN(C(=O)[C@H]1CC1(C)C)C2)[C@@H](C)OCC1CCC(C)(C)CC1` [I-372] it is no less than 8.00; for `C[C@@H](OCc1ccccc1)[C@H](NC(=O)C1CN(C(=O)c2cnn(Cc3ccccc3)c2)CC12CN(C(=O)[C@H]1CC1(C)C)C2)C(=O)NCCN` (some centres unmarked) [I-31] it is 6.00 to 7.00. The figure for `C[C@@H](OCC1CCOCC1)[C@H](NC(=O)[C@@H]1CN(C(=O)c2cncs2)CC12CN(C(=O)[C@H]1CC1(C)C)C2)C(=O)N1CCC(F)(F)CC1` [I-288] is 7.00 to 8.00. `CNC(=O)[C@@H](NC(=O)[C@H]1CN(C(=O)c2cnn(CC3CC3)c2)CC12CN(C(=O)CC1CC1)C2)[C@@H](C)OCc1ccccc1` [I-53B]: the pIC50 is less than 5.00. The figure for `CNC(=O)[C@@H](NC(=O)[C@@H]1CN(C(=O)c2cnn(Cc3ccccc3)c2)CC12CN(C(=O)C(C)(C)C)C2)[C@@H](C)OCc1ccccc1` [I-65A] is 7.00 to 8.00; for `C[C@@H](OCc1ccccc1)[C@H](NC(=O)[C@H]1CN(C(=O)c2cnn(Cc3ccccc3)c2)CC12CN(C(=O)[C@H]1CC1(C)C)C2)C(N)=O` [I-176B] it is 5.00 to 6.00. With `C[C@@H](OCC1CCCCC1)[C@H](NC(=O)[C@@H]1CN(C(=O)c2cncs2)CC12CN(C(=O)[C@H]1CC1(C)C)C2)C(=O)N1CCNCC1` [I-328], the pIC50 is no less than 8.00.
